Results taken from patent US20050112573A1, “Method of detecting toxic substance” (priority 2001, published 2005).

System: yeast genes (level of expressed mRNA)
Test: DNA chip analysis of expressed mRNA of yeast genes after 2 h culture with a toxic chemical substance
Format: cell-based, Saccharomyces cerevisiae S288C
Settings: for The level of expressed mRNA in the presence of chemical substance/ (ratio to absence of chemical substance): stress protein genes, DNA chip; for The level of expressed mRNA in the presence of chemical substance/ in its absence, gene YPR184W: yeast gene YPR184W
Procedure: Yeast (Saccharomyces cerevtisiae S288C (α SUC2mal mel gap2 CUP1)) were cultured at 25° C. on YPD medium (yeast extract 1%, polypepton 2%, glucose 2%). One of toxic chemical substances was added to the cell at logarithmic growth phase, and the cell was further cultured for two hours. Cell was cultured without any chemical substance in the same condition, and was used as control. Concentrations of the chemical substances were defined to inhibit the growth of the yeast but not lead to death.
After the completion of cultivation, the culture was centrifuged to collect the cells. To the cells, sodium acetate buffer (50 mM sodium acetate, 10 mM EDTA, 1% SDS) was added, and the mixture was shaken at 65° C. for five minutes, followed by returning to room temperature, and obtaining the supernatant, which procedure was repeated two times. To the supernatant, ½ amount of a solution of phenol/chloroform was added, and the mixture was centrifuged to give a supernatant, which was added with an equal amount of chloroform, and the mixture was centrifuged to give a supernatant. To the supernatant, an equal amount of isopropanol containing 0.3 M sodium acetate was added, and the mixture was allowed to stand at room temperature for 30 minutes, after which the mixture was centrifuged to give a sediment of the whole RNAs. Seventy % ethanol was added to the sediment, and the mixture was again centrifuged to give a sediment, which was then dried and dissolved in water. mRNA was isolated from the whole RNAs as followings. In view of the fact that a poly A chain is attached to the 3′ terminus of mRNA, a polynucleotide having a poly T structure which was immobilized on the surface of latex beads was used to trap the mRNA, and then the mRNA was washed and eluted with spine column (Oligotex-dT30<Super>mRNA Purification Kit, Takara). Reverse transcription of the mRNA was conducted with a reverse transcriptase (Super Script II Reverse Transcriptase; catalogue No. 18064-014, GibcoBRL) using fluorescence-labeled nucleotides to give cDNAs that were introduced with Cy3-dUTP or Cy5-dUTP during the reverse transcription.
The labeled cDNAs were dissolved in TE buffer (10 mM Tris-HCl/1 mM EDTA, pH8.0), and the solution was dropped on the DNA chip containing the whole genes of yeast (DNA Chip Research Inc. Japan) so that the cDNAs were hybridized on the DNA chip at 65° C. for over 12 hours. The fluoresces intensity of the DNA chip was read with a scanner, and the ratio relative to the fluorescence intensity resulting from the absence of chemical substance was estimated as the following, which is shown in Tables 1 to 9: [formula]
In the Tables, “Intensity” indicated in the rightmost column is a value of the level of expressed mRNA of each gene in control cells as divided by the average level of the expressions of the whole genes.

## COc1cc(CNC(=O)CCCCC=CC(C)C)ccc1O [(12), 8-methyl-N-vanillyl-6-nonenamide]
Yeast gene YMR314W
  The level of expressed mRNA in the presence of chemical substance/The level of expressed mRNA in the absence of chemical substance: 1.0
Yeast gene YNL006W
  The level of expressed mRNA in the presence of chemical substance/The level of expressed mRNA in the absence of chemical substance: 0.7
Yeast gene YNL007C
  The level of expressed mRNA in the presence of chemical substance/The level of expressed mRNA in the absence of chemical substance: 0.7
Yeast gene YNL025C, ratio of DNA chip fluorescence intensity to that without chemical substance
  The level of expressed mRNA in the presence of chemical substance/ (in its absence), gene YNL025C: 0.8
Yeast gene YNL064C
  The level of expressed mRNA in the presence of chemical substance/ (ratio to absence of chemical substance): 0.8
Yeast gene YNL073W, mitochondria-located protein genes, 2 h culture with chemical
  The level of expressed mRNA in the presence of chemical substance/ (ratio to absence), gene YNL073W: 0.7
Yeast gene YNL093W
  The level of expressed mRNA in the presence of chemical substance/The level of expressed mRNA in the absence of chemical substance: 1.1
Yeast gene YNL192W, ratio of DNA chip fluorescence intensity to that without chemical substance
  The level of expressed mRNA in the presence of chemical substance/ (in its absence), gene YNL192W: 1.1
Yeast gene YNL333W
  The level of expressed mRNA in the presence of chemical substance/The level of expressed mRNA in the absence of chemical substance: 1.0
Yeast gene YNR010W
  The level of expressed mRNA in the presence of chemical substance/The level of expressed mRNA in the absence of chemical substance: 0.8
Yeast gene YNR069C
  The level of expressed mRNA in the presence of chemical substance/The level of expressed mRNA in the absence of chemical substance: 1.2
Yeast gene YNR072W, ratio of DNA chip fluorescence intensity to that without chemical substance
  The level of expressed mRNA in the presence of chemical substance/ (in its absence), gene YNR072W: 1.0
Yeast gene YNR076W
  The level of expressed mRNA in the presence of chemical substance/ (ratio to absence of chemical substance): 0.7
Yeast gene YOL013C
  The level of expressed mRNA in the presence of chemical substance/The level of expressed mRNA in the absence of chemical substance: 1.1
Yeast gene YOL096C, mitochondria-located protein genes, 2 h culture with chemical
  The level of expressed mRNA in the presence of chemical substance/ (ratio to absence), gene YOL096C: 1.2
Yeast gene YOL096C, ratio of DNA chip fluorescence intensity to that without chemical substance
  The level of expressed mRNA in the presence of chemical substance/ (in its absence), gene YOL096C: 1.2
Yeast gene YOL108C, ratio of DNA chip fluorescence intensity to that without chemical substance
  The level of expressed mRNA in the presence of chemical substance/ (in its absence), gene YOL108C: 1.0
Yeast gene YOL116W, ratio of DNA chip fluorescence intensity to that without chemical substance
  The level of expressed mRNA in the presence of chemical substance/ (in its absence), gene YOL116W: 0.6
Yeast gene YOL161C
  The level of expressed mRNA in the presence of chemical substance/ (ratio to absence of chemical substance): 1.3
Yeast gene YOL164W
  The level of expressed mRNA in the presence of chemical substance/The level of expressed mRNA in the absence of chemical substance: 1.1
Yeast gene YOR008C
  The level of expressed mRNA in the presence of chemical substance/ (ratio to absence of chemical substance): 0.7
Yeast gene YOR009W
  The level of expressed mRNA in the presence of chemical substance/ (ratio to absence of chemical substance): 0.4
Yeast gene YOR010C
  The level of expressed mRNA in the presence of chemical substance/ (ratio to absence of chemical substance): 0.5
Yeast gene YOR036W
  The level of expressed mRNA in the presence of chemical substance/The level of expressed mRNA in the absence of chemical substance: 1.2
Yeast gene YOR103C, ratio of DNA chip fluorescence intensity to that without chemical substance
  The level of expressed mRNA in the presence of chemical substance/ (in its absence), gene YOR103C: 1.2
Yeast gene YOR117W
  The level of expressed mRNA in the presence of chemical substance/The level of expressed mRNA in the absence of chemical substance: 2.5
Yeast gene YOR124C
  The level of expressed mRNA in the presence of chemical substance/The level of expressed mRNA in the absence of chemical substance: 0.9
Yeast gene YOR132W
  The level of expressed mRNA in the presence of chemical substance/The level of expressed mRNA in the absence of chemical substance: 0.7
Yeast gene YOR157C
  The level of expressed mRNA in the presence of chemical substance/The level of expressed mRNA in the absence of chemical substance: 1.3
Yeast gene YOR180C, ratio of DNA chip fluorescence intensity to that without chemical substance
  The level of expressed mRNA in the presence of chemical substance/ (in its absence), gene YOR180C: 0.8
Yeast gene YOR181W
  The level of expressed mRNA in the presence of chemical substance/The level of expressed mRNA in the absence of chemical substance: 0.8
Yeast gene YOR185C
  The level of expressed mRNA in the presence of chemical substance/The level of expressed mRNA in the absence of chemical substance: 1.5
Yeast gene YOR198C
  The level of expressed mRNA in the presence of chemical substance/The level of expressed mRNA in the absence of chemical substance: 1.5
Yeast gene YOR251C, ratio of DNA chip fluorescence intensity to that without chemical substance
  The level of expressed mRNA in the presence of chemical substance/ (in its absence), gene YOR251C: 0.9
Yeast gene YOR259C
  The level of expressed mRNA in the presence of chemical substance/The level of expressed mRNA in the absence of chemical substance: 0.8
Yeast gene YOR261C
  The level of expressed mRNA in the presence of chemical substance/The level of expressed mRNA in the absence of chemical substance: 0.9
Yeast gene YOR288C
  The level of expressed mRNA in the presence of chemical substance/The level of expressed mRNA in the absence of chemical substance: 1.4
Yeast gene YOR316C, mitochondria-located protein genes, 2 h culture with chemical
  The level of expressed mRNA in the presence of chemical substance/ (ratio to absence), gene YOR316C: 1.1
Yeast gene YOR348C, ratio of DNA chip fluorescence intensity to that without chemical substance
  The level of expressed mRNA in the presence of chemical substance/ (in its absence), gene YOR348C: 0.7
Yeast gene YOR355W
  The level of expressed mRNA in the presence of chemical substance/The level of expressed mRNA in the absence of chemical substance: 0.9
Yeast gene YOR363C, ratio of DNA chip fluorescence intensity to that without chemical substance
  The level of expressed mRNA in the presence of chemical substance/ (in its absence), gene YOR363C: 0.9
Yeast gene YOR383C
  The level of expressed mRNA in the presence of chemical substance/The level of expressed mRNA in the absence of chemical substance: 1.1
Yeast gene YPL040C, mitochondria-located protein genes, 2 h culture with chemical
  The level of expressed mRNA in the presence of chemical substance/ (ratio to absence), gene YPL040C: 0.9
Yeast gene YPL059W
  The level of expressed mRNA in the presence of chemical substance/ (ratio to absence of chemical substance): 0.8
Yeast gene YPL089C
  The level of expressed mRNA in the presence of chemical substance/The level of expressed mRNA in the absence of chemical substance: 0.7
Yeast gene YPL109C
  The level of expressed mRNA in the presence of chemical substance/The level of expressed mRNA in the absence of chemical substance: 0.9
Yeast gene YPL134C, mitochondria-located protein genes, 2 h culture with chemical
  The level of expressed mRNA in the presence of chemical substance/ (ratio to absence), gene YPL134C: 0.8
Yeast gene YPL140C
  The level of expressed mRNA in the presence of chemical substance/ (ratio to absence of chemical substance): 0.8
Yeast gene YPL148C, ratio of DNA chip fluorescence intensity to that without chemical substance
  The level of expressed mRNA in the presence of chemical substance/ (in its absence), gene YPL148C: 0.7
Yeast gene YPL149W
  The level of expressed mRNA in the presence of chemical substance/The level of expressed mRNA in the absence of chemical substance: 0.9
Yeast gene YPL154C
  The level of expressed mRNA in the presence of chemical substance/The level of expressed mRNA in the absence of chemical substance: 1.5
Yeast gene YPL194W
  The level of expressed mRNA in the presence of chemical substance/ (ratio to absence of chemical substance): 0.9
Yeast gene YPR005C
  The level of expressed mRNA in the presence of chemical substance/ (ratio to absence of chemical substance): 0.6
Yeast gene YPR103W
  The level of expressed mRNA in the presence of chemical substance/The level of expressed mRNA in the absence of chemical substance: 1.2
Yeast gene YPR108W
  The level of expressed mRNA in the presence of chemical substance/The level of expressed mRNA in the absence of chemical substance: 1.0
Yeast gene YPR165W, ratio of DNA chip fluorescence intensity to that without chemical substance
  The level of expressed mRNA in the presence of chemical substance/ (in its absence), gene YPR165W: 0.8
Energy system protein genes, 2 h culture with the chemical, ratio to control without chemical
  The level of expressed mRNA in the presence of chemical substance/ in its absence, gene YPR184W: 1.4
Ratio of DNA chip fluorescence intensity to that without chemical substance
  The level of expressed mRNA in the presence of chemical substance/ in its absence, gene YPR184W: 1.4
